Marks after values point to notes of the source that are not given here.
Key:
[1] = Cytotoxicity assay (XTT) in Huh-7 cells; format: cell-based; settings: human
Description: In parallel, cytotoxicity assays were performed. Monolayers of 1.5×10^4 cells in 96-well plates were treated for 3 days with various concentrations (semi-log dilutions from 1,000 to 10 μM) of the antiviral drugs. Then, 5 mg/mL 2,3-bis-(2-methoxy-4-nitro-5-sulfophenyl)-2H-tetrazolium-5-carboxanilide (XTT) in DMEM was added to the cells in the presence of 0.01% of N-methyl dibenzopyrazine methyl sulfate (PMS).

[2] = Repeated dose 28-day oral toxicity study; format: in vivo, mice
Description: FIG. 10A and 10B. […] Body weight gain in weeks (A) in males and (B) in females by 4 weeks. […] Body weight was measured once a week.
These experiments were conducted in compliance with the GLP principles. Morbidity, mortality, body weight in male (FIG. 10A) and female (FIG. 10B), food consumption as well as general and detailed clinical signs were evaluated. In the last week, urine samples from all animals were collected for analysis. At necropsy, blood samples were collected for hematological, biochemical and coagulation analyses, followed by tissue and organ collection for macroscopic and histopathological analyses.

[3] = female mice, 10 mg/kg oral once daily for 28 days
[4] = female mice, 80 mg/kg oral once daily for 28 days
[5] = female mice, 250 mg/kg oral once daily for 28 days
[6] = female mice, 10 mg/kg daily, 28 days
[7] = female mice, 80 mg/kg daily, 28 days
[8] = female mice, 250 mg/kg daily, 28 days
[9] = male mice, 10 mg/kg daily, 28 days
[10] = male mice, 80 mg/kg daily, 28 days
[11] = male mice, 250 mg/kg daily, 28 days

In the case of `c1coc(CNc2ncnc3[nH]cnc23)c1` [MB-905, kinetin], the CC50 at 3 days [1] is reported as 560 µM, the NOAEL at 28 days ([2]; both sexes, CD1, mouse, in vivo, mice, oral, 28-day study) is reported as 80 mg/kg and the “ALB (Albumin), Mean” value [2, 3] is reported as 2.67 g/dL. For the same molecule, the “ALT (Alanine aminotransferase), Mean” value [2, 3] was 43.72 U/L, the “AST (Aspartate Aminotransferase), Mean” value [2, 3] was 91.88 U/L and the “BT (Total Bilirubin), Mean” value [2, 3] was 0.39 mg/dL. For the same molecule, the “CA (Calcium), Mean” value [2, 3] was 9.77 mg/dL, the “CRE (Creatinine), Mean” value [2, 3] was 0.29 mg/dL and the “CT (Total cholesterol), Mean” value [2, 3] was 98.17 mg/dL. The “FA (Alkaline phosphatase), Mean” value [2, 3] was 108.75 U/L, the “GGT (Gamma-glutamyltransferase), Mean” value [2, 3] was 0.00 U/L and the “GLUCOSE, Mean” value [2, 3] was 118.56 mg/dL. For the same molecule, the “P (Phosphorus), Mean” value [2, 3] was 4.69 mg/dL, the “PT (Total protein), Mean” value [2, 3] was 5.84 g/dL and the “TRI (Triglycerides), Mean” value [2, 3] was 62.00 mg/dL. For the same molecule, the “UREIA, Mean” value [2, 3] was 54.93 mg/dL, the “ALB (Albumin), Mean” value [2, 4] was 2.91 g/dL and the “ALT (Alanine aminotransferase), Mean” value [2, 4] was 52.50 U/L. For the same molecule, the “AST (Aspartate Aminotransferase), Mean” value [2, 4] was 119.73 U/L, the “BT (Total Bilirubin), Mean” value [2, 4] was 0.41 mg/dL and the “CA (Calcium), Mean” value [2, 4] was 8.34 mg/dL. The “CRE (Creatinine), Mean” value [2, 4] was 0.25 mg/dL, the “CT (Total cholesterol), Mean” value [2, 4] was 119.86 mg/dL and the “FA (Alkaline phosphatase), Mean” value [2, 4] was 77.20 U/L. The “GGT (Gamma-glutamyltransferase), Mean” value [2, 4] was 0.00 U/L, the “GLUCOSE, Mean” value [2, 4] was 138.04 mg/dL and the “P (Phosphorus), Mean” value [2, 4] was 5.47 mg/dL. The “PT (Total protein), Mean” value [2, 4] was 5.99 g/dL, the “TRI (Triglycerides), Mean” value [2, 4] was 92.90 mg/dL and the “UREIA, Mean” value [2, 4] was 44.12 mg/dL. The “ALB (Albumin), Mean” value [2, 5] was 3.29 g/dL, the “ALT (Alanine aminotransferase), Mean” value [2, 5] was 44.84 U/L and the “AST (Aspartate Aminotransferase), Mean” value [2, 5] was 127.67 U/L. For the same molecule, the “BT (Total Bilirubin), Mean” value [2, 5] was 0.34 mg/dL, the “CA (Calcium), Mean” value [2, 5] was 10.26 mg/dL and the “CRE (Creatinine), Mean” value [2, 5] was 0.30 mg/dL. For the same molecule, the “CT (Total cholesterol), Mean” value [2, 5] was 126.67 mg/dL, the “FA (Alkaline phosphatase), Mean” value [2, 5] was 80.40 U/L and the “GGT (Gamma-glutamyltransferase), Mean” value [2, 5] was 0.20 U/L. The “GLUCOSE, Mean” value [2, 5] was 135.84 mg/dL, the “P (Phosphorus), Mean” value [2, 5] was 5.44 mg/dL and the “PT (Total protein), Mean” value [2, 5] was 6.79 g/dL. For the same molecule, the “TRI (Triglycerides), Mean” value [2, 5] was 108.33 mg/dL, the “UREIA, Mean” value [2, 5] was 73.50 mg/dL and the HCT [2, 6] was 40.60%. The HGB [2, 6] was 13.58 g/dL, the MCH [2, 6] was 17.51 pg and the MCHC [2, 6] was 31.74 g/dL. For the same molecule, the MCV [2, 6] was 52.32 fL, the PLT [2, 6] was 1.07322e+06 µL⁻¹ and the RBC [2, 6] was 7.76e+06 µL⁻¹. It also gave a W-LCR [2, 6] of 36.41%, a W-MCR [2, 6] of 5.03% and a W-SCR [2, 6] of 57.60%. The WBC [2, 6] was 1700 µL⁻¹, the HCT [2, 7] was 39.78% and the HGB [2, 7] was 13.31 g/dL. For the same molecule, the MCH [2, 7] was 17.50 pg, the MCHC [2, 7] was 33.47 g/dL and the MCV [2, 7] was 52.32 fL. It also gave a PLT [2, 7] of 918000 µL⁻¹, an RBC [2, 7] of 7.61e+06 µL⁻¹ and a W-LCR [2, 7] of 21.77%. For the same molecule, the W-MCR [2, 7] was 2.77%, the W-SCR [2, 7] was 74.94 * % and the WBC [2, 7] was 3590 µL⁻¹. For the same molecule, the HCT [2, 8] was 40.70%, the HGB [2, 8] was 13.27 g/dL and the MCH [2, 8] was 17.46 pg. It also gave an MCHC [2, 8] of 33.03 g/dL, an MCV [2, 8] of 52.80 fL and a PLT [2, 8] of 780330 µL⁻¹. It also gave an RBC [2, 8] of 7.61e+06 µL⁻¹, a W-LCR [2, 8] of 22.91% and a W-MCR [2, 8] of 3.10%. For the same molecule, the W-SCR [2, 8] was 73.06%, the WBC [2, 8] was 4.88* ×10^3/μL and the ALT [2, 9] was 43.99 U/L. The AST [2, 9] was 105.30 U/L, the BT [2, 9] was 0.67 mg/dL and the CA [2, 9] was 9.91 mg/dL. The CRE [2, 9] was 0.37 mg/dL, the CT [2, 9] was 137.00 mg/dL and the FA [2, 9] was 103.67 U/L. For the same molecule, the GGT [2, 9] was 2.33 U/L, the GLUCOSE [2, 9] was 127.41 mg/dL and the HCT [2, 9] was 38.33%. The HGB [2, 9] was 12.51 g/dL, the MCH [2, 9] was 17.12 pg and the MCHC [2, 9] was 32.69 g/dL. The MCV [2, 9] was 52.46 fL, the PLT [2, 9] was 971900 µL⁻¹ and the PT [2, 9] was 5.56 g/dL. The RBC [2, 9] was 7.3e+06 µL⁻¹, the TRI [2, 9] was 94.50 mg/dL and the UREIA [2, 9] was 60.48 mg/dL. For the same molecule, the W-LCR [2, 9] was 40.81 * %, the W-MCR [2, 9] was 5.41% and the W-SCR [2, 9] was 51.88 * %. For the same molecule, the WBC [2, 9] was 1610 µL⁻¹, the ALT [2, 10] was 69.54 U/L and the AST [2, 10] was 134.48 U/L. It also gave a BT [2, 10] of 0.25 mg/dL, a CA [2, 10] of 9.76 mg/dL and a CRE [2, 10] of 0.28 mg/dL. For the same molecule, the CT [2, 10] was 154.56 mg/dL, the FA [2, 10] was 69.67 U/L and the GGT [2, 10] was 0.00 U/L. The GLUCOSE [2, 10] was 129.24 mg/dL, the HCT [2, 10] was 38.59% and the HGB [2, 10] was 12.64 g/dL. It also gave an MCH [2, 10] of 17.34 pg, an MCHC [2, 10] of 32.76 g/dL and an MCV [2, 10] of 53.00 fL. It also gave a PLT [2, 10] of 1.03444e+06 µL⁻¹, a PT [2, 10] of 5.74 g/dL and an RBC [2, 10] of 7.28e+06 µL⁻¹. For the same molecule, the TRI [2, 10] was 116.7 mg/dL, the UREIA [2, 10] was 30.02 * mg/dL and the W-LCR [2, 10] was 16.37 * %. The W-MCR [2, 10] was 3.36 * %, the W-SCR [2, 10] was 79.52 * % and the WBC [2, 10] was 4700 µL⁻¹. The ALT [2, 11] was 57.17 U/L, the AST [2, 11] was 124.78 U/L and the BT [2, 11] was 0.43 mg/dL. For the same molecule, the CA [2, 11] was 10.38 mg/dL, the CRE [2, 11] was 0.31 mg/dL and the CT [2, 11] was 183.56 mg/dL. For the same molecule, the FA [2, 11] was 85.88 U/L, the GGT [2, 11] was 0.50 U/L and the GLUCOSE [2, 11] was 105.23 mg/dL. The HCT [2, 11] was 40.41%, the HGB [2, 11] was 13.26 g/dL and the MCH [2, 11] was 17.03 pg. The MCHC [2, 11] was 32.80 g/dL, the MCV [2, 11] was 51.91 fL and the PLT [2, 11] was 1.05633e+06 µL⁻¹. It also gave a PT [2, 11] of 5.22 g/dL, an RBC [2, 11] of 7.79e+06 µL⁻¹ and a TRI [2, 11] of 84.90 mg/dL. For the same molecule, the UREIA [2, 11] was 74.16 mg/dL, the W-LCR [2, 11] was 20.89 * % and the W-MCR [2, 11] was 4.17%. The W-SCR [2, 11] was 74.40* %, the WBC [2, 11] was 4110 µL⁻¹ and the “histopathology, kidneys” value ([2]; mice, both sexes, 250 mg/kg) was “areas of basophilic proximal tubules and tubular dilatation”. The ophthalmological health ([2]; mice, either sex, 250 mg/kg) was “No changes”, the “biochemical and hematological parameters” value ([2]; mice, male and female, 28 days, main groups) was “slight changes” and the “histopathology, kidneys” value ([2]; mice, 10 mg/kg and 80 mg/kg, recovery group) was “not observed”. For the same molecule, the “macroscopic evaluation at necropsy” value ([2]; mice, 28 days) was “did not reveal significant changes” and the “urine parameters (volume, specific gravity, pH, protein)” value ([2]; mice, 28 days, main groups) was “No significant changes”.

Reference: patent publication US20240207302A1, “ANTIVIRAL COMPOUNDS, METHODS FOR THE MANUFACTURING OF COMPOUNDS, ANTIVIRAL PHARMACEUTICAL COMPOSITION, USE OF THE COMPOUNDS AND METHOD FOR THE ORAL TREATMENT OF CORONAVIRUS INFECTION AND RELATED DISEASES THEREOF” (priority 2021, published 2024)
